pIC50: −log10 of the molar value. Where two headings read alike, the source gives them in different places.

Assay [1] has as its target T1, NS5B (Hepatitis C virus genotype 1b, UniProt Q9WMX2).
T1 construct: 3 nM NS5B, 20 nM polyC RNA template
Put plainly: Polymerase assay, incorporation of radiolabeled GTP with biotinylated oligoG13 primer and polycytidylic acid RNA template. The format is biochemical. To be noted: polyC RNA template, biotin-oligoG13 primer, tritiated GTP, 3 nM NS5B, 30° C., 2 hours. As for the experimental part:
The polymerase activity was also assayed by measuring incorporation of radiolabeled GTP into an RNA product using a biotinylated oligoG13 primer with a polycytidylic acid RNA template. Typically, the assay mixture (40 μL) contains 50 mM HEPES (pH 7.3), 2.5 mM magnesium acetate, 2 mM sodium chloride, 37.5 mM potassium acetate, 5 mM DTT, 0.4 U/mL RNasin, 2.5% glycerol, 3 nM NS5B, 20 nM polyC RNA template, 20 nM biotin-oligoG13 primer, and 0.2 μM tritiated guanosine triphosphate. Test compounds were initially dissolved and diluted in 100% DMSO and further diluted into aqueous buffer, producing a final concentration of 5% DMSO. Typically, compounds were tested at concentrations between 0.2 nM and 10 μM. Reactions were started with addition of tritiated guanosine triphosphate and allowed to continue at 30° C. for 2 hours. Reactions were quenched with 100 μL stop buffer containing 10 mM EDTA and 1 μg/mL streptavidin-coated scintillation proximity beads. Reaction plates were incubated at 4° C. for 10 hours and then incorporation of radioactivity was determined by scintillation counting. The table below lists the IC50 values of compounds determined using this procedure.

The target of assay [2] is T2, HCV-NS5b (Hepatitis C virus genotype 1b, UniProt Q9WMX2).
T2 construct: (His)6 (C); made in house; host or cells: XL-1 cells (E. coli), IPTG-inducible plasmid
Put plainly: HCV-NS5b enzyme assay using homopolymer substrate. The format is biochemical. From the text:
The coding sequence of NS5b protein was cloned by PCR from pFKI389luc/NS3-3′/ET as described by Lohmann, V., et al. (1999) Science 285, 110-113 using the primers shown on page 266 of WO 2005/012288
The cloned fragment is missing the C terminus 21 amino acid residues. The cloned fragment was inserted into an IPTG-inducible (isopropyl-β-D-thiogalactopyranoside) expression plasmid that provides an epitope tag (His)6 at the carboxy terminus of the protein.
The recombinant enzyme was expressed in XL-1 cells and after induction of expression, the protein was purified using affinity chromatography on a nickel-NTA (nitrilotriacetic acid) column. Storage condition was 10 mM Tris-HCl pH 7.5, 50 mM NaCl, 0.1 mM EDTA (ethylenediaminetetraacetic acid), 1 mM DTT (dithiothreotol), 20% glycerol at −20° C.
The polymerase activity was assayed by measuring incorporation of radiolabeled UTP into a RNA product using a biotinylated, homopolymeric template. The template was formed by annealing adenosine homopolymer to uridine 20-mer capped with a 5′-biotin group (biotin-U^20) in the ratio of 1:4. Typically, the assay mixture (50 μL) contained 25 mM Tris-HCl (pH 7.5), 40 mM KCl, 0.3 mM MgCl2, 0.05 mM EDTA, 0.2 unit/μL Superase RNAse Inhibitor, 5 mM DTT, 30 μM UTP (Uridine triphosphate), including [^3H]-UTP (uridine triphosphate) at 0.4 μCi/μL with final concentration of 1 μM, and 50 nM of homopolymeric template. Test compounds were initially dissolved in 100% DMSO and further diluted in aqueous buffer containing 5% DMSO. Typically, compounds were tested at concentrations between 2 nM and 50 μM. Reactions were started with addition of enzyme and allowed to continue at 30° C. for 90 minutes. Reactions were quenched with 8 μL of 100 mM EDTA and reaction mixtures (30 μL) were transferred to streptavidin-coated scintillation proximity microtiter plates (FlashPlates) and incubated at room temperature overnight. Incorporation of radioactivity was determined by scintillation counting.
Inhibitor IC50 values were determined by adding test compound as ten point, two-fold serial dilutions in 100% DMSO with a final reaction concentration of 5%. IC50 was calculated by plotting the % inhibition against compound concentration and fitting the data to a constrained four parameter sigmoidal curve, equivalent to the “four parameter logistic equation”:
Where Bottom is the minimum Y value, Top is the maximum Y value, and Hillslope is the slope of the linear portion of the semi-log curve. Top and Bottom were constrained to values of 0% and 100%, respectively. These analyses were performed using Graphpad Prism v.4.0 (Graphpad Software, Inc.) in conjunction with DS Accord for EXCEL 6.0 (Accelrys, Microsoft Corp.).
The table below lists the IC50 values of compounds determined using the homopolymer substrates.

Setting [3] is: homopolymer substrate, [3H]-UTP incorporation, 30° C., 90 minutes, read-out: IC50.

For orientation: pIC50 means −log10 of the IC50, conventionally taken in molar units. Compound `O=C(O)c1ccc2c(C3CCCCC3)c3n(c2c1)CCN1CCC(NC2CCCC2)c2cccc-3c21` (racemic) [Compound 280] showed a pIC50 in assay [1] of 8.66. For `CNC(=O)c1cc2cccc3c2n1CCCn1c-3c(C2CCCCC2)c2ccc(C(=O)O)cc21` [Compound 417], the pIC50 in assay [2] (setting [3]) is 7.00. In the case of `NCc1cc2cccc3c2n1CCCn1c-3c(C2CCCCC2)c2ccc(C(=O)O)cc21` [Compound 418], the pIC50 in assay [2] (setting [3]) is 6.84. Regarding `CC(C)N1Cc2c(n3c4c(cccc24)-c2c(C4CCCCC4)c4ccc(C(=O)O)cc4n2CCC3)C1=O` [Compound 419], the pIC50 in assay [2] (setting [3]) was 6.74.

For the compound `O=C(O)c1ccc2c(C3CCCCC3)c3n(c2c1)CCCn1c2c(c4cccc-3c41)CN(C1CCCCC1)C2=O` [Compound 421], the pIC50 in assay [2] (setting [3]) was 6.33. Same read-out and setting: for `O=C(O)c1ccc2c(C3CCCCC3)c3n(c2c1)CC1(CC1)Cn1cc(CN2CCCCC2)c2cccc-3c21` [Compound 427] the value was 6.92; for `CCN(C)Cc1cn2c3c(cccc13)-c1c(C3CCCCC3)c3ccc(C(=O)O)cc3n1CC1(CC1)C2` [Compound 428], 6.78. Turning to `CCN(CC)CCC(=O)c1cn2c3c(cccc13)-c1c(C3CCCCC3)c3ccc(C(=O)O)cc3n1CCC2` [Compound 429], the pIC50 in assay [2] was 7.00. In turn, `CC(C)NCCC(=O)c1cn2c3c(cccc13)-c1c(C3CCCCC3)c3ccc(C(=O)O)cc3n1CCC2` [Compound 430] showed a pIC50 in assay [2] of 7.14. As for `O=C(O)c1ccc2c(C3CCCCC3)c3n(c2c1)CCCn1cc(/C(Cl)=C/CN2CCCCC2)c2cccc-3c21` [Compound 431], the pIC50 in assay [2] (setting [3]) is 6.70.

Consider `CCN(CC)CC#Cc1cn2c3c(cccc13)-c1c(C3CCCCC3)c3ccc(C(=O)O)cc3n1CCC2` [Compound 432], for which the pIC50 in assay [2] (setting [3]) was 6.49. On the same count and under the same terms, the result for `CC(C)NCCCc1cn2c3c(cccc13)-c1c(C3CCCCC3)c3ccc(C(=O)O)cc3n1CCC2` [Compound 433] reads 6.74; that for `O=C(O)c1ccc2c(C3CCCCC3)c3n(c2c1)CCCn1cc(CCCN2CCCCC2)c2cccc-3c21` [Compound 434], 6.76; that for `O=C(O)c1ccc2c(C3CCCCC3)c3n(c2c1)CCCn1cc(CCCN2CCCC2)c2cccc-3c21` [Compound 435], 6.77. The same measure, in the same setting: for `CCN(CC)CCCc1cn2c3c(cccc13)-c1c(C3CCCCC3)c3ccc(C(=O)O)cc3n1CCC2` [Compound 436] the value was 6.48. Regarding `O=C(O)c1ccc2c(C3CCCCC3)c3n(c2c1)CCCn1cc(C(=O)N2CCCC2)c2cccc-3c21` [Compound 437], the pIC50 in assay [2] was 6.82. On the same count and under the same terms, the result for `CCN(CC)C(=O)c1cn2c3c(cccc13)-c1c(C3CCCCC3)c3ccc(C(=O)O)cc3n1CCC2` [Compound 438] reads 7.16.

For the compound `CN1CCN(C(=O)c2cn3c4c(cccc24)-c2c(C4CCCCC4)c4ccc(C(=O)O)cc4n2CCC3)CC1` [Compound 439], the pIC50 in assay [2] was 6.74.

In assay [2], `CN(C)CCNC(=O)c1cn2c3c(cccc13)-c1c(C3CCCCC3)c3ccc(C(=O)O)cc3n1CCC2` [Compound 440] showed a pIC50 of 6.97.

`CC(C)N(C(=O)c1cn2c3c(cccc13)-c1c(C3CCCCC3)c3ccc(C(=O)O)cc3n1CCC2)C(C)C` [Compound 441] had a pIC50 in assay [2] of 6.57. Still for that read-out and setting: the result for `COCCNC(=O)c1cn2c3c(cccc13)-c1c(C3CCCCC3)c3ccc(C(=O)O)cc3n1CCC2` [Compound 442] reads 6.91; that for `CC(C)NC(=O)c1cn2c3c(cccc13)-c1c(C3CCCCC3)c3ccc(C(=O)O)cc3n1CCC2` [Compound 443], 6.92. Regarding `N#Cc1cn2c3c(cccc13)-c1c(C3CCCCC3)c3ccc(C(=O)O)cc3n1CCC2` [Compound 444], the pIC50 in assay [2] (setting [3]) was 6.67. On to `O=C(O)c1ccc2c(C3CCCCC3)c3n(c2c1)CCCn1cc(-c2nnn[nH]2)c2cccc-3c21` [Compound 445], for which, in assay [2] (setting [3]), the pIC50 was 6.99.

On to `N=C(N)c1cn2c3c(cccc13)-c1c(C3CCCCC3)c3ccc(C(=O)O)cc3n1CCC2` [Compound 446], for which the pIC50 in assay [2] (setting [3]) is 6.77. Regarding `NC1CCN2CCn3c(c(C4CCCCC4)c4ccc(C(=O)O)cc43)-c3cc(F)cc1c32` (stereo not shown) [Compound 447], the pIC50 in assay [2] (setting [3]) was 7.23. `CN1CCN(CCc2cn3c4c(cccc24)-c2c(C4CCCCC4)c4ccc(C(=O)O)cc4n2CCC3)CC1` [Compound 449]: the pIC50 in assay [2] (setting [3]) is 6.60. As to `CCN(CC)CCc1cn2c3c(cccc13)-c1c(C3CCCCC3)c3ccc(C(=O)O)cc3n1CCC2` [Compound 452], in assay [2] (setting [3]), the pIC50 was 6.49.

The compound `CCN(CC)C(=O)C(=O)c1cn2c3c(cccc13)-c1c(C3CCCCC3)c3ccc(C(=O)O)cc3n1CCC2` [Compound 453] had a pIC50 in assay [2] of 6.67. `O=C(O)c1ccc2c(C3CCCCC3)c3n(c2c1)CCCn1cc(C(=O)CN2CCCCC2)c2cccc-3c21` [Compound 454] showed a pIC50 in assay [2] of 6.46. Consider `O=C(O)c1ccc2c(C3CCCCC3)c3n(c2c1)CCCn1cc(Cl)c2cccc-3c21` [Compound 455], for which the pIC50 in assay [2] (setting [3]) was 6.80.

`O=C(O)c1ccc2c(C3CCCCC3)c3n(c2c1)CCCn1ccc2c(Cl)ccc-3c21` [Compound 456]: the pIC50 in assay [2] (setting [3]) was 6.90. On to `O=C(O)c1ccc2c(C3CCCCC3)c3n(c2c1)CCCn1cc(CN2CCCCC2)c2c(Cl)ccc-3c21` [Compound 457], for which the pIC50 in assay [2] (setting [3]) is 6.71. For the compound `CN1CCN(Cc2cn3c4c(ccc(Cl)c24)-c2c(C4CCCCC4)c4ccc(C(=O)O)cc4n2CCC3)CC1` [Compound 458], in assay [2] (setting [3]), the pIC50 is 6.71. As to `CCN(C)Cc1cn2c3c(ccc(Cl)c13)-c1c(C3CCCCC3)c3ccc(C(=O)O)cc3n1CCC2` [Compound 459], in assay [2] (setting [3]), the pIC50 is 6.80.

In the case of `COc1ccc2c3c1ccn3CCCn1c-2c(C2CCCCC2)c2ccc(C(=O)O)cc21` [Compound 460], in assay [2] (setting [3]), the pIC50 was 6.68. As for `COc1ccc2c3c1c(CN1CCCCC1)cn3CCCn1c-2c(C2CCCCC2)c2ccc(C(=O)O)cc21` [Compound 461], the pIC50 in assay [2] (setting [3]) was 6.43.

`CCN(C)Cc1cn2c3c(ccc(OC)c13)-c1c(C3CCCCC3)c3ccc(C(=O)O)cc3n1CCC2` [Compound 462]: the pIC50 in assay [2] (setting [3]) was 6.38. For `COc1ccc2c3c1c(CNC(C)C)cn3CCCn1c-2c(C2CCCCC2)c2ccc(C(=O)O)cc21` [Compound 463], the pIC50 in assay [2] (setting [3]) is 5.69. As to `O=C(O)c1ccc2c(C3CCCCC3)c3n(c2c1)CCCn1cc(CN2CCCCC2)c2ccnc-3c21` [Compound 464], the pIC50 in assay [2] (setting [3]) was 6.02. As to `CCN(CC)Cc1cn2c3c(nccc13)-c1c(C3CCCCC3)c3ccc(C(=O)O)cc3n1CCC2` [Compound 465], in assay [2] (setting [3]), the pIC50 was 5.76. For the compound `O=C(O)c1ccc2c(C3CCCCC3)c3n(c2c1)CCCn1ccc2cc(F)cc-3c21` [Compound 466], in assay [2] (setting [3]), the pIC50 is 7.07. Same read-out and setting: the result for `O=C(O)c1ccc2c(C3CCCCC3)c3n(c2c1)CCCn1cc(CN2CCCCC2)c2cc(F)cc-3c21` [Compound 467] reads 7.02. Turning to `O=C(O)c1ccc2c(C3CCCCC3)c3n(c2c1)CCn1cc(CN2CCCCC2)c2c(F)ccc-3c21` [Compound 468], in assay [2] (setting [3]), the pIC50 is 7.08. For the compound `COc1ccc2c3c1c(CN1CCN(C)CC1)cn3CCCn1c-2c(C2CCCCC2)c2ccc(C(=O)O)cc21` [Compound 469], the pIC50 in assay [2] (setting [3]) was 6.18. With `O=C(O)c1ccc2c(C3CCCCC3)c3n(c2c1)CCN1CCC(NC2CCCCC2)c2cccc-3c21` (stereo not shown) [compound 281], the pIC50 in assay [2] (setting [3]) is 7.21.

The record behind these values is US20090197856A1, “ANTIVIRAL COMPOUNDS” (Genelabs Technologies, Inc., priority 2007, published 2009).
